In ChEMBL document CHEMBL1201862, “PubChem BioAssay data set” (2004):
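Protocol summary: plate cells (96-well), add compound at 5 concentrations, incubate 48 h, interpolate endpoints linearly. Abbreviation: GI50, concentration required for 50% inhibition of growth.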 The source made the active and inactive calls. No stated cut-off is given here; in the data, active = GI50 up to about 1.1 µM and inactive = higher. Square brackets hold non-standard residues; d marks the D form. Peptide text beside a SMILES is read from it. * marks the point of attachment. ξ: configuration not given here. NMeN = CN[C@@H](CC(N)=O)C(=O)O; NMeV = CN[C@H](C(=O)O)C(C)C; ξNMeV = CNC(C(=O)O)C(C)C; Boc = CC(C)(C)OC(=O)*; ξNMeA = CNC(C)C(=O)O

Key:
Assay in all cases: NCI tumour cell line growth inhibition, 48 h
786-0 = tested on: 786-0
HCC 2998 = tested on: HCC 2998
HL-60 = tested on: HL-60
HOP-62 = tested on: HOP-62
HOP-92 = tested on: HOP-92
IGROV-1 = tested on: IGROV-1
LOX IMVI = tested on: LOX IMVI
MDA-N = tested on: MDA-N
MOLT-4 = tested on: MOLT-4
NCI-H23 = tested on: NCI-H23
NCI-H460 = tested on: NCI-H460
NCI-H522 = tested on: NCI-H522
OVCAR-5 = tested on: OVCAR-5
OVCAR-8 = tested on: OVCAR-8
SK-MEL-5 = tested on: SK-MEL-5
SK-OV-3 = tested on: SK-OV-3
SW-620 = tested on: SW-620
U-251 = tested on: U-251
UACC-257 = tested on: UACC-257

Compound	GI50 (786-0)	GI50 (HCC 2998)	GI50 (HL-60)	GI50 (HOP-62)	GI50 (HOP-92)	GI50 (IGROV-1)	GI50 (LOX IMVI)	GI50 (MDA-N)	GI50 (MOLT-4)	GI50 (NCI-H23)	GI50 (NCI-H460)	GI50 (NCI-H522)	GI50 (OVCAR-5)	GI50 (OVCAR-8)	GI50 (SK-MEL-5)	GI50 (SK-OV-3)	GI50 (SW-620)	GI50 (U-251)	GI50 (UACC-257)
O=C1NN=C2C=C(c3ccc(Cl)cc3)CC(c3cccc(Cl)c3)C12 (stereo unspecified)	21.4 µM (inactive)	17.1 µM (inactive)	21.2 µM (inactive)	34.4 µM (inactive)	9.79 µM (inactive)	19.6 µM (inactive)	18.5 µM (inactive)	23.4 µM (inactive)	17.9 µM (inactive)	32.2 µM (inactive)	19 µM (inactive)	15.8 µM (inactive)	26.5 µM (inactive)	45.4 µM (inactive)	18.5 µM (inactive)	25.1 µM (inactive)	27.9 µM (inactive)	18.9 µM (inactive)	17.9 µM (inactive)
O=[N+]([O-])c1ccc(/C(=C\c2ccccc2)Cn2ccnc2)cc1	34.3 µM (inactive)	68.7 µM (inactive)	19 µM (inactive)	54.1 µM (inactive)	18.9 µM (inactive)	24.6 µM (inactive)	17.3 µM (inactive)	25.4 µM (inactive)	24 µM (inactive)	26.5 µM (inactive)	32 µM (inactive)	20 µM (inactive)	61.5 µM (inactive)	35.9 µM (inactive)	29.9 µM (inactive)	38.4 µM (inactive)	44.7 µM (inactive)	33.3 µM (inactive)	37.6 µM (inactive)
COC(=O)C(C)N(C)C(=O)[C@H](CC(N)=O)N(C)C(=O)[C@@H]1CCCN1C(=O)[C@H](C(C)C)N(C)C(=O)C(C(C)C)N(C)C(=O)[C@@H](NC(=O)OC(C)(C)C)C(C)C (stereo partly specified) (Boc-V[ξNMeV][NMeV]P[NMeN][ξNMeA]-OMe)	> 50 µM (inactive)	> 50 µM (inactive)	15.1 µM (inactive)	> 50 µM (inactive)	> 50 µM (inactive)	> 50 µM (inactive)	23.9 µM (inactive)	> 50 µM (inactive)	9.93 µM (inactive)	> 50 µM (inactive)	> 50 µM (inactive)	> 50 µM (inactive)	> 50 µM (inactive)	> 100 µM (inactive)	31.7 µM (inactive)	> 50 µM (inactive)	> 50 µM (inactive)	> 50 µM (inactive)	> 50 µM (inactive)
CC1(COS(=O)(=O)OCC2(C)COS(=O)(=O)OC2)COS(=O)(=O)OC1	> 50.8 µM (inactive)	> 60.7 µM (inactive)	> 35.1 µM (inactive)	62.2 µM (inactive)	10.3 µM (inactive)	39.2 µM (inactive)	> 40.5 µM (inactive)	> 72.4 µM (inactive)		> 25.8 µM (inactive)	> 42.3 µM (inactive)	> 61.1 µM (inactive)	> 100 µM (inactive)	> 48.3 µM (inactive)	> 69.2 µM (inactive)	> 100 µM (inactive)	> 55.2 µM (inactive)	> 38.1 µM (inactive)	> 75 µM (inactive)
OCCc1ccsc1-c1sc(-c2cc(CCO)c(-c3sc(-c4cc(CCO)c(-c5sccc5CCO)s4)cc3CCO)s2)cc1CCO	0.776 µM (active)	1.47 µM (inactive)	1.53 µM (inactive)	1.38 µM (inactive)	1.14 µM (inactive)	1.21 µM (inactive)	0.617 µM (active)	1.24 µM (inactive)	0.52 µM (active)	0.853 µM (active)	0.841 µM (active)	0.807 µM (active)	1.38 µM (inactive)	1.55 µM (inactive)	1.13 µM (inactive)	1.64 µM (inactive)	1.31 µM (inactive)	0.957 µM (active)	1.13 µM (inactive)
Cc1c(-c2ccccc2)c(C#N)c2nnn(-c3ccccc3)c(=O)n12	76.4 µM (inactive)	99.8 µM (inactive)	84.1 µM (inactive)	44.2 µM (inactive)	> 100 µM (inactive)	> 100 µM (inactive)	48.4 µM (inactive)	> 100 µM (inactive)		> 100 µM (inactive)	64.6 µM (inactive)	44.9 µM (inactive)	> 100 µM (inactive)	> 100 µM (inactive)	30.9 µM (inactive)	> 100 µM (inactive)	> 100 µM (inactive)	48.8 µM (inactive)	> 100 µM (inactive)
COc1ccc([C@]23CCN(S(=O)(=O)c4ccc(C)cc4)[C@H]2[C@H](CO)C2(CC3)OCC(C)(C)CO2)cc1OC	> 100 µM (inactive)	> 100 µM (inactive)	> 100 µM (inactive)	> 100 µM (inactive)	> 100 µM (inactive)	> 100 µM (inactive)	> 100 µM (inactive)	> 100 µM (inactive)	> 100 µM (inactive)	> 100 µM (inactive)	> 100 µM (inactive)	> 100 µM (inactive)	> 100 µM (inactive)	> 100 µM (inactive)	> 100 µM (inactive)	> 100 µM (inactive)	> 100 µM (inactive)	> 100 µM (inactive)	> 100 µM (inactive)
